# According to patent publication US5294605A, “Amphiphilic peptide compositions and analogues thereof” (The Scripps Research Institute, priority 1991, dated 1994):
# Where “and” joins values, the source holds several entries; their conditions need not be identical. Equal entries are not always repeated. Where two headings read alike, the source gives them in different places. Ends that are not written are not given here.
# What was measured:
# Type in all cases: cell-based
# S. aureus ATCC 25923 = test: Antibacterial assay, NCCLS M7-T2 microdilution (Example 15), MIC; conditions: Table XI; Mueller Hinton broth, 16-20 hours 37° C., 1-5×10^5 CFUs/ml
# Experimental: (§1) The procedure for the following antibacterial assay is based upon the guidelines of the National Committee for Clinical Laboratory Standards, Document M7-T2, Volume 8, No. 8, 1988.
# (§2) Stock solutions of the following Peptides (SEQ ID NO:4) and (SEQ ID NO:64) through (SEQ ID NO:68) in accordance with the present invention are prepared at a concentration of 512 μg/ml in sterile deionized distilled water and stored at -70° C.
# (§3) The stock peptide solution was diluted in serial dilutions (1:2) down the wells of a microtiter plate so that the final concentrations of peptides in the wells were 0.25, 0.50, 1, 2, 4, 8, 16, 32, 64, 128, and 256 μg/ml. 1-5×10^5 CFUs/ml of either S. aureus ATCC 25923, E. coli ATCC 25922, or P. aeruginosa ATCC 27853 were added to the wells in full strength Mueller Hinton broth (BBL 11443) from a mid-log culture. The inoculum is standarized spectrophotometrically at 600 nm and is verified by colony counts. […] Minimal inhibitory concentration is defined as the lowest concentration of peptide which produces a clear well in the microtiter plate.
# (§4) For purposes of explanation of Table XI below, S is the MIC of the peptide against S. aureus, P is the MIC of the peptide against P. aeruginosa, and E is the MIC of the peptide against E. coli.
# E. coli ATCC 25922 = test: as above; conditions: Table XI; Mueller Hinton broth, 16-20 hours 37° C., 1-5×10^5 CFUs/ml
# Experimental: as §1, §2, §3, §4
# P. aeruginosa ATCC 27853 = test: as above; conditions: Table XI; Mueller Hinton broth, 16-20 hours 37° C., 1-5×10^5 CFUs/ml
# Experimental: as §1, §2, §3, §4
# [1] = test system: Staphylococcus epidermidis; test: Antimicrobial assay in 96-well plates, LB medium (Example 2), MIC; conditions: Table I, 100 percent growth inhibition, 20 hours, 1.0×10^6 CFU/ml
# Escherichia coli [2] = conditions: Table I; 100 percent growth inhibition, 20 hours, 1.0×10^6 CFU/ml, LB medium
# Experimental: (§5) For the following Examples 3-9, antimicrobial assays were carried out in 96-well tissue culture plates. Each well was incubated with a given microorganism (Escherichia coli, Staphylococcus epidermidis, or Pseudomonas aeruginosa) suspended in LB medium. Upon the addition of the parent peptide having the structural formula hereinabove described, or its substitution analogues, or of Peptide I (dissolved in 1 X PBS, pH 7.0) each well contained a final cell density of 1.0×10^6 colony forming units (CFU)/ml. The final peptide concentrations ranged from 1.5 μg/ml to greater than 100 μg/ml.
# (§6) Addition of peptides to the wells was defined as time zero. At twenty hours, the plates were placed in a Titertek Multiskan apparatus and the O.D.620 determined. The plates as well as the initial innoculum were incubated at 37° C.
# (§7) Five wells per plate contained media alone, while five others contained medium plus cells. These controls were used to eliminate the possibility of media contamination while providing a measure of uninhibited growth of the microorganisms.
# (§8) The degree of peptide activity was determined by comparing the substitution analogues with uninhibited growth of the control cells over a twenty-hour period.
# (§9) as hereinabove described and analogues thereof wherein a methionine sulfoxide residue was substituted for various amino acid residues of the parent peptide were prepared as hereinabove described in Example 1 and tested for minimum inhibitory concentration with respect to E. coli, P. aeruginosa, and S. epidermidis at a concentration given in μg/ml, and for percent hemolysis of human red blood cells as hereinabove described in Example 2. The minimum inhibitory concentration and percent hemolysis (at a concentration of 100 μg/ml) are listed below in Table I. As used herein, the heading "Amino Acid Residue Substituted" refers to the number of the amino acid residue in the peptide which is substituted with a desired amino acid residue. All other residues remain the same as that of the normal peptide sequence. The term "Minimum Inhibitory Concentration" (MIC) as used herein indicates the minimum concentration of peptide in μg/ml needed to achieve 100 percent effective growth inhibition of the organism.
# Pseudomonas aeruginosa [3] = conditions: Table I; 100 percent growth inhibition, 20 hours, 1.0×10^6 CFU/ml, LB medium
# Experimental: as §5, §6, §7, §8, §9
# Staphylococcus aureus = test: Antimicrobial assay for deletion analogues (Example 10), MIC; conditions: Table VII; 3.9×10^5 CFU/ml, 20 hours, LB medium
# Experimental: (§10) For the deletion analogues of the parent peptide further described in Examples 11 and 12, antimicrobial assays were carried out in 96-well tissue culture plates. Each well was incubated with a given microorganism (Escherichia coli, Staphylococcus epidermidis, Pseudomonas aeruginosa, or Staphylococcus aureus) suspended in LB medium. Upon addition of the parent peptide or its deletion analogues (dissolved in 1×PBS<pH7.0), each well contained a final cell density of 1.3×10^5 colony forming units (CFU)/ml of E. coli, or 3.5×10^5 CFU/ml P.aeruginosa, or 3.9×10^5 CFU/ml S. Aureus or 3.0×10^5 CFU/ml S. epidermidis. The final peptide concentrations ranged from 1.5 μg/ml to greater than 100 μg/ml. Addition of peptide to the wells was defined as time zero. At twenty hours, the plates were placed in a Titertek Multiskan apparatus and the O.D. 620 determined. The plates as well as the initial innoculum were incubated at 37° C. Five wells per plate contained medium alone, whereas five others contained medium plus cells. These controls were used to eliminate the possibility of medium contamination, while providing a measure of uninhibited growth of the microorganisms. The degree of peptide activity was determined by comparing the deletion analogues with uninhibited growth of the control cells over a twenty-hour period. The effective growth inhibitation of the deletion analogues is listed in the examples and tables below.
# Escherichia coli [4] = test: as above; conditions: Table VII; 1.3×10^5 CFU/ml, 20 hours, LB medium
# Experimental: as §10
# [5] = test system: Staphylococcus epidermidis; test: as above; conditions: Table VII; 3.0×10^5 CFU/ml, 20 hours, LB medium
# Experimental: as §10
# Pseudomonas aeruginosa [6] = test: as above; conditions: Table VII; 3.5×10^5 CFU/ml, 20 hours, LB medium
# Experimental: as §10
Substance,MIC S (S. aureus) (S. aureus ATCC 25923) [µg/mL],MIC E (E. coli) (E. coli ATCC 25922) [µg/mL],MIC P (P. aeruginosa) (P. aeruginosa ATCC 27853),Minimum Inhibitory Concentration S. epidermidis [1] [µg/mL],Minimum Inhibitory Concentration E. coli (Escherichia coli [2]) [µg/mL],Minimum Inhibitory Concentration P. Aeruginosa (Pseudomonas aeruginosa [3]) [µg/mL],Minimum Inhibitory Concentration S. aureus (Staphylococcus aureus) [µg/mL],Minimum Inhibitory Concentration E. coli (Escherichia coli [4]) [µg/mL],Minimum Inhibitory Concentration S. epidermidis [5] [µg/mL],Minimum Inhibitory Concentration P. Aeruginosa (Pseudomonas aeruginosa [6]) [µg/mL]
Ac-KKLLKKLKKLLKKL-NH2 [X-(SEQ ID NO: 65) --NH2],16,32,16 µg/mL and 32 µg/mL,–,–,–,–,–,–,–
Ac-LKKLLKKLKKLLKKL-NH2 [X-(SEQ ID NO: 66) --NH2],8,8,16 µg/mL,–,–,–,–,–,–,–
Ac-LKLLKKLLKKGKKLLKKL-NH2 [X-(SEQ ID NO: 68) --NH2],8,16,8 µg/mL,–,–,–,–,–,–,–
Ac-LKLLKKLLKKLKKLLKKL-NH2 [None (parent)],–,–,–,2.5,10,75,128,10,2.5,75
Ac-LLKKLKKLLKKLLKLL-NH2 [X-(SEQ ID NO: 4) --NH2],32,32,64 µg/mL,–,–,–,–,–,–,–
LLKKLKKLLKKLLKLL-NH2 [(SEQ ID NO: 4) --NH2],32,32,64 µg/mL,–,–,–,–,–,–,–
